Test results reported in US20230130103A1, “TARGETED PHARMACOLOGICAL THERAPEUTICS IN UVEAL MELANOMA” (Washington University, priority 2017, published 2023).

Columns and labels:
92.1 cells [1] = assay: Immunoblot of histone H3 lysine 27 trimethylation (PRC2 inhibition); format: cell-based, Human; conditions: 7 d GSK503, FIG. 7G
Protocol: (§1) Gαq-mutant 92.1 UM cells were treated with FR or vehicle, and RNA was collected 1 and 3 d after treatment for RNA-Seq analysis. FIG. 7A Unsupervised principal component analysis identified FR treatment and time in culture as the two main separable factors contributing to changes in gene expression. […] FIG. 7D FR-repressed genes identified as targets of the polycomb repressive complex 2 by Geneset enrichment analysis. FIG. 7E The Ezh1/2 inhibitor GSK503 blocks the morphological differentiation elicited by FR. 92.1 UM cells were treated 7 d with GSK503 and 3 d with FR and then imaged by phase contrast microscopy. […] 92.1 cells were treated 7 d with GSK503 and 3 d with FR and pelleted. FIG. 7G PRC2 inhibition by GSK503.
For standard immunoblots, cells were lysed and cleared in radioimmunoprecipitation assay buffer (150 mM sodium chloride, 1% Triton-X100, 0.5% sodium deoxycholate, 0.1% sodium dodecyl sulfate, 50 mM Tris, pH 8.0) with 1×Complete Protease Inhibitor (Roche, cat.11697498001). Histones were isolated from cells using the Active Motif Histone Purification Mini Kit (cat.40026, Active Motif, Carlsbad, Calif.). Lysates were resolved on 15% SDS-PAGE gels and transferred to Immobilon(P) PVDF membrane (Milipore, cat.IPVH00010). […] Following incubation, membranes were washed at least three times with TBST and signals were detected using LI-COR Odyssey model 9120 imaging system (LI-COR). […]

92.1 cells [2] = assay: Melanocytic re-differentiation (morphology, pigmentation, immunostaining); format: cell-based, Human; conditions: 7 d GSK503 and 3 d FR
Protocol: FIG. 5A Morphological changes elicited by FR. UM cell lines were treated 3 d with FR and imaged by phase contrast microscopy. FR caused UM cells driven by constitutively active Gαq (92.1 and Mel202) to lose their characteristic spindle shaped and assume a stellate shape with multiple projections. FR had no effect on BRAF-driven UM cells (OCM-1A). FIG. 5B Melanocytic differentiation of FR-treated UM cells indicated by pigmentation. UM cell lines were treated 3 d with FR. Cells were pelleted and examined macroscopically. […] Scale bar=50 μm.
as §1
Cell fixation was carried out by adding an equal volume of 2×fixative (PBS with 4% paraformaldehyde and 0.4% glutaraldehyde) to UM cells in RPMI growth medium. After 15 min at 37° C., cells were permeabilized with 0.1% Triton X-100 in PBS for 5 min, washed with PBS, and blocked with 2% fish gelatin (Sigma-Aldrich) in PBS. Primary and secondary antibodies were diluted in 2% fish gelatin in PBS. Primary antibodies included mouse monoclonal anti-pre-melanosomal protein (One World Lab, San Diego, Calif.), rabbit polyclonal anti-tyrosinase (One World Lab), rabbit polyclonal anti-dopachrome tautomerase (One World Lab), rabbit polyclonal anti-S100 (DakoCytomation, Denmark), and mouse monoclonal anti-BrdU (Life Technologies). Secondary antibodies were Alexa-fluor conjugates (Life Technologies), and the mounting agent was ProLong Gold (Life Technologies). Cell morphology was assessed by phase contrast imaging with an inverted microscope (Olympus IX72) using a 10×objective.

Cc1cc(C)c(CNC(=O)c2cc(-c3ccc(N4CCN(C)CC4)nc3)cc3c2c(C)cn3C(C)C)c(=O)[nH]1 [GSK503, reference compound]
histone H3 lysine 27 trimethylation (immunoblot) (92.1 cells [1]): reduced histone H3 lysine 27 trimethylation
FR-induced re-differentiation (morphology) (92.1 cells [2]; FIG. 7E): blocked the ability of FR to re-differentiate these cells
pigmentation of FR-treated cells (92.1 cells [2]; FIG. 7F): decreased pigmentation
